Values of other authors in patent US20070027073A1, “Long-acting derivatives of pyy agonists” (priority 2003, published 2007).

Settings: in vivo

CCCCCCCCCCC[C@@H](C[C@@H]1OC(=O)[C@H]1CCCCCC)OC(=O)[C@H](CC(C)C)NC=O [Orlistat]
reduction of fat adsorption through the gut: about one third
